According to ChEMBL document CHEMBL5505975, “Design, synthesis and biological evaluation of CDC20 inhibitors for treatment of triple-negative breast cancer” (Eur J Med Chem, 2024):

Legend:
MCF7 = test: Antiproliferative activity against human MCF7 cells assessed as reduction in cell viability incubated for 96 hrs by MTT assay; conditions: MCF7, 96 h
MDA-MB-231 = test: Antiproliferative activity against human MDA-MB-231 cells assessed as reduction in cell viability incubated for 96 hrs by MTT assay; conditions: MDA-MB-231, 96 h
A549 = test: Antiproliferative activity against human A549 cells assessed as reduction in cell viability incubated for 96 hrs by MTT assay; conditions: A549, 96 h
MDA-MB-468 = test: Antiproliferative activity against human MDA-MB-468 cells assessed as reduction in cell viability incubated for 96 hrs by MTT assay; conditions: MDA-MB-468, 96 h
[1] = Cytotoxicity against human L02 cells assessed as reduction in cell viability incubated for 96 hrs by MTT assay; assay type: toxicity, cell-based

SMILES	IC50 (MCF7)	IC50 (MDA-MB-231)	IC50 (A549)	IC50 (MDA-MB-468)	IC50 at 96 h [1]
CCC(=O)NC(n1cnc2c(Nc3ccc4c(c3)OCO4)nc(N)nc21)C(Cl)(Cl)Cl (stereo not given)	> 20 µM	> 20 µM	> 20 µM	> 20 µM	> 20 µM
CCC(=O)NC(n1cnc2c(Nc3ccc(C(F)(F)F)cc3)nc(N)nc21)C(Cl)(Cl)Cl (stereo not given)	10.2 µM	9.56 µM	10.4 µM	11.3 µM	12.3 µM
CCCC(=O)NC(Nc1nc(Nc2cc(OC)c(OC)c(OC)c2)c2cc[nH]c2n1)C(Cl)(Cl)Cl (stereo not given)	19.6 µM	9.91 µM	> 20 µM	17.2 µM	14.4 µM
CCCCC(=O)NC(Nc1nc(Nc2ccc(C(F)(F)F)cc2)c2cc[nH]c2n1)C(Cl)(Cl)Cl (stereo not given)	7.58 µM	7.36 µM	7.26 µM	13.2 µM	8.85 µM
CCCC(=O)NC(Nc1nc(Nc2ccc(C(F)(F)F)cc2)c2cc[nH]c2n1)C(Cl)(Cl)Cl (stereo not given)	6.58 µM	7.32 µM	7.32 µM	9.62 µM	10.2 µM
CCC(=O)NC(Nc1nc(Nc2ccc(C(F)(F)F)nc2)c2cc[nH]c2n1)C(Cl)(Cl)Cl (stereo not given)	> 20 µM	19.8 µM	> 20 µM	> 20 µM	> 20 µM
CCC(=O)NC(n1cnc2c(Nc3cc(OC)cc(OC)c3)nc(N)nc21)C(Cl)(Cl)Cl (stereo not given)	> 20 µM	> 20 µM	> 20 µM	> 20 µM	> 20 µM
CCC(=O)NC(Nc1nc(Nc2ccc(OC(F)(F)F)cc2)c2cc[nH]c2n1)C(Cl)(Cl)Cl (stereo not given)	11.8 µM	16.1 µM	11.3 µM	18.1 µM	25.3 µM
COc1cc(Nc2nc(NC(NC(=O)C3CCCCC3)C(Cl)(Cl)Cl)nc3[nH]ccc23)cc(OC)c1 (stereo not given)	> 20 µM	> 20 µM	> 20 µM	> 20 µM	> 20 µM
O=C(NC(Nc1nc(Nc2ccc(C(F)(F)F)cc2)c2cc[nH]c2n1)C(Cl)(Cl)Cl)C1CCCCC1 (stereo not given)	8.17 µM	8.69 µM	9.3 µM	9.15 µM	11.6 µM
CCC(=O)NC(Nc1nc(Nc2ccc(OC)cc2)c2cc[nH]c2n1)C(Cl)(Cl)Cl (stereo not given)	> 20 µM	> 20 µM	> 20 µM	> 20 µM	> 20 µM
CCCCCC(=O)NC(Nc1nc(Nc2cc(OC)c(OC)c(OC)c2)c2cc[nH]c2n1)C(Cl)(Cl)Cl (stereo not given)	16.7 µM	8.25 µM	10.8 µM	15.2 µM	12.3 µM
CCC(=O)NC(Nc1nc(Nc2ccc(OC)c(Cl)c2)c2cc[nH]c2n1)C(Cl)(Cl)Cl (stereo not given)	> 20 µM	> 20 µM	> 20 µM	> 20 µM	> 20 µM
O=C(NC(Nc1nc(Nc2ccc(C(F)(F)F)cc2)c2cc[nH]c2n1)C(Cl)(Cl)Cl)C1CC1 (stereo not given)	6.71 µM	5.97 µM	6.66 µM	10.2 µM	16.1 µM
CCC(=O)NC(Nc1nc(Nc2cc(OC)c(OC)c(OC)c2)c2cc[nH]c2n1)C(Cl)(Cl)Cl (stereo not given)	14.7 µM	8.81 µM	11.6 µM	15.9 µM	9.01 µM
CCC(=O)NC(Nc1nc(Nc2ccc(C(F)(F)F)cc2F)c2cc[nH]c2n1)C(Cl)(Cl)Cl (stereo not given)	13.6 µM	12.6 µM	11.2 µM	14.1 µM	14 µM
CCCc1ccc(Nc2nc(NC(NC(=O)CC)C(Cl)(Cl)Cl)nc3[nH]ccc23)cc1 (stereo not given)	> 20 µM	> 20 µM	> 20 µM	> 20 µM	> 20 µM
O=C(NC(Nc1nccc(Nc2ccc(C(F)(F)F)cc2)n1)C(Cl)(Cl)Cl)C1CC1 (stereo not given)	> 20 µM	> 20 µM	> 20 µM	> 20 µM	> 20 µM
COc1cc(Nc2nc(NC(NC(=O)C3CCCCC3)C(Cl)(Cl)Cl)nc3[nH]ccc23)cc(OC)c1OC (stereo not given)	13.7 µM	11.4 µM	10.8 µM	12.3 µM	14 µM
CCCCCC(=O)NC(Nc1nc(Nc2cc(OC)cc(OC)c2)c2cc[nH]c2n1)C(Cl)(Cl)Cl (stereo not given)	> 20 µM	> 20 µM	> 20 µM	> 20 µM	> 20 µM
CCC(=O)NC(Nc1nc(Nc2cc(F)c(OC)c(F)c2)c2cc[nH]c2n1)C(Cl)(Cl)Cl (stereo not given)	7.2 µM	8.07 µM	8.79 µM	10.4 µM	14.5 µM

Continued, in another order:

IC50 (MCF7)	IC50 (MDA-MB-231)	IC50 (A549)	IC50 (MDA-MB-468)	SMILES	IC50 at 96 h [1]
> 20 µM	> 20 µM	> 20 µM	> 20 µM	CCCC(=O)NC(Nc1nc(Nc2cc(OC)cc(OC)c2)c2cc[nH]c2n1)C(Cl)(Cl)Cl (stereo not given)	> 20 µM
6.21 µM	7.79 µM	7.98 µM	10.1 µM	CCC(=O)NC(Nc1nc(Nc2ccc(C(F)(F)F)cc2)c2cc[nH]c2n1)C(Cl)(Cl)Cl (stereo not given)	12.8 µM
> 20 µM	> 20 µM	> 20 µM	> 20 µM	CCCCC(=O)NC(Nc1nc(Nc2cc(OC)cc(OC)c2)c2cc[nH]c2n1)C(Cl)(Cl)Cl (stereo not given)	> 20 µM
> 20 µM	> 20 µM	> 20 µM	> 20 µM	CCC(=O)NC(n1cnc2c(Nc3ccc(OC)c(Cl)c3)nc(N)nc21)C(Cl)(Cl)Cl (stereo not given)	> 20 µM
9.27 µM	10.1 µM	7.52 µM	> 20 µM	CCC(=O)NC(Nc1nc(Nc2ccc(OC(F)(F)F)c(F)c2)c2cc[nH]c2n1)C(Cl)(Cl)Cl (stereo not given)	7.55 µM
> 20 µM	> 20 µM	> 20 µM	> 20 µM	CCC(=O)NC(n1cnc2c(Nc3ccc(OC)cc3)nc(N)nc21)C(Cl)(Cl)Cl (stereo not given)	> 20 µM
> 20 µM	> 20 µM	> 20 µM	> 20 µM	CCC(=O)NC(Nc1nc(Nc2ccc3scnc3c2)c2cc[nH]c2n1)C(Cl)(Cl)Cl (stereo not given)	> 20 µM
17.7 µM	12.7 µM	6.92 µM	> 20 µM	CCC(=O)NC(Nc1nc(Nc2ccc(C(F)(F)F)cc2Cl)c2cc[nH]c2n1)C(Cl)(Cl)Cl (stereo not given)	14.5 µM
19.4 µM	10.5 µM	14.3 µM	> 20 µM	CCCCC(=O)NC(Nc1nc(Nc2cc(OC)c(OC)c(OC)c2)c2cc[nH]c2n1)C(Cl)(Cl)Cl (stereo not given)	> 20 µM
> 20 µM	> 20 µM	> 20 µM	> 20 µM	CCC(=O)NC(Nc1nc(Nc2cc(OC)cc(OC)c2)c2cc[nH]c2n1)C(Cl)(Cl)Cl (stereo not given)	> 20 µM
6.97 µM	6.15 µM	8.36 µM	12 µM	CCCCCC(=O)NC(Nc1nc(Nc2ccc(C(F)(F)F)cc2)c2cc[nH]c2n1)C(Cl)(Cl)Cl (stereo not given)	14.4 µM
> 20 µM	> 20 µM	> 20 µM	> 20 µM	CCC(=O)NC(Nc1nc(Nc2ccc(OC)c(OC)c2)c2cc[nH]c2n1)C(Cl)(Cl)Cl (stereo not given)	> 20 µM
